Laboratory results published in patent US20250333406A1, “SULFONYL CYCLIC DERIVATIVES, AND COMPOSITIONS AND METHODS THEREOF” (Lysoway Therapeutics, Inc., priority 2023, published 2025).

test system: TFEB; experiment: TFEB Nuclear Translocation Assay; assay type: cell-based; conditions: read-out: EC50 of TFEB activation

| Structure (SMILES) | EC50 [nM] |
| --- | --- |
| CC(F)(F)c1cnc(-n2nc(N3CCN(c4ncc(F)cn4)CC34CC4)c3c(Cl)cccc32)nc1 [Compound 136, 4-chloro-1-[5-(1,1-difluoroethyl)pyrimidin-2-yl]-3-[7-(5-fluoropyrimidin-2-yl)-4,7-diazaspiro [2.5]octan-4-yl]indazole] | ≥ 10000 |
| CC(C)S(=O)(=O)n1ccc(S(=O)(=O)n2nc(N3CCN(c4ncccn4)CC34CC4)c3c(Cl)cc(F)cc32)c1 [Compound 164, 4-chloro-6-fluoro-1-(1-isopropylsulfonylpyrrol-3-yl)sulfonyl-3-(7-pyrimidin-2-yl-4,7-diazaspiro[2.5]octan-4-yl) indazole] | ≤ 1000 |
| CC(C)S(=O)(=O)c1ccc(S(=O)(=O)n2nc(N3CCC(OC(F)F)CC3C(F)(F)F)c3c(Cl)cccc32)cc1 (stereo not drawn) [Compound 86, 4-chloro-3-[4-(difluoromethoxy)-2-(trifluoromethyl)-1-piperidyl]-1-(4-isopropylsulfonylphenyl) sulfonyl-indazole] | ≤ 1000 |
| CC(C)S(=O)(=O)c1ccc(S(=O)(=O)n2nc(N3CCN(c4ncc(Cl)cn4)CC34CC4)c3c(Cl)cc(F)cc32)s1 [Compound 36, 4-chloro-3-(7-(5-chloropyrimidin-2-yl)-4,7-diazaspiro [2.5]octan-4-yl)-6-fluoro-1-((5-(isopropylsulfonyl)thiophen-2-yl)sulfonyl)-1H-indazole] | ≤ 1000 |
| CC(C)S(=O)(=O)n1ccc(S(=O)(=O)n2nc(N3CCN(c4ncc(F)cn4)CC34CC4)c3c(F)cc(F)cc32)c1 [Compound 166, 4,6-difluoro-3-(7-(5-fluoropyrimidin-2-yl)-4,7-diazaspiro [2.5]octan-4-yl)-1-((1-(isopropylsulfonyl)-1H-pyrrol-3-yl)sulfonyl)-1H-indazole] | ≤ 1000 |
| CC(C)S(=O)(=O)n1ccc(S(=O)(=O)n2nc(N3CCN(c4ccc(F)cn4)CC34CC4)c3c(Cl)cc(F)cc32)c1 [Compound 161, 4-chloro-6-fluoro-3-[7-(5-fluoro-2-pyridyl)-4,7-diazaspiro [2.5]octan-4-yl]-1-(1-isopropylsulfonylpyrrol-3-yl) sulfonyl-indazole] | ≤ 1000 |
| CC(C)S(=O)(=O)c1ccc(S(=O)(=O)n2nc(N3CCN(CC(F)(F)F)CC3C(F)(F)F)c3c(Cl)cccc32)cc1 (stereo not drawn) [Compound 75, 4-chloro-1-(4-isopropylsulfonylphenyl)sulfonyl-3-[4-(2,2,2-trifluoroethyl)-2-(trifluoromethyl)piperazin-1-yl]indazole] | ≤ 1000 |
| CC(C)(F)S(=O)(=O)c1ccc(S(=O)(=O)n2nc(N3CCN(c4ncc(F)cn4)CC34CC4)c3c(Cl)cccc32)cc1 [Compound 22, 4-chloro-1-((4-((2-fluoropropan-2-yl)sulfonyl)phenyl)sulfonyl)-3-(7-(5-fluoropyrimidin-2-yl)-4,7-diazaspiro [2.5]octan-4-yl)-1H-indazole] | ≤ 1000 |
| CC(C)S(=O)(=O)c1ccc(S(=O)(=O)n2nc(N3CCC(Cl)(Cl)CC34CC4)c3c(Cl)cccc32)cc1 [Compound 54, 4-chloro-3-(7,7-dichloro-4-azaspiro [2.5]octan-4-yl)-1-(4-isopropylsulfonylphenyl) sulfonyl-indazole] | ≤ 1000 |
| CC(F)(F)c1ccc(S(=O)(=O)n2nc(N3CCN(c4ccc(Cl)cc4F)CC34CC4)c3c(Cl)cccc32)cc1 [Compound 124, 4-chloro-3-(7-(4-chloro-2-fluorophenyl)-4,7-diazaspiro[2.5]octan-4-yl)-1-((4-(1,1-difluoroethyl)phenyl)sulfonyl)-1H-indazole] | ≤ 1000 |
| CC(C)S(=O)(=O)c1nc(S(=O)(=O)n2nc(N3CCN(c4ncc(Cl)cc4F)CC34CC4)c3c(F)ccc(F)c32)cs1 [Compound 193, 4-[3-[7-(5-chloro-3-fluoro-2-pyridyl)-4,7-diazaspiro [2.5]octan-4-yl]-4,7-difluoro-indazol-1-yl]sulfonyl-2-isopropylsulfonyl-thiazole] | 1000 to 10000 |
| O=S(=O)(c1ccc(C(F)(F)C2CC2)cc1)n1nc(N2CCN(c3ncc(F)cn3)CC23CC3)c2c(Cl)cccc21 [Compound 92, 4-chloro-1-((4-(cyclopropyldifluoromethyl)phenyl)sulfonyl)-3-(7-(5-fluoropyrimidin-2-yl)-4,7-diazaspiro [2.5]octan-4-yl)-1H-indazole] | ≤ 1000 |
| CC(C)S(=O)(=O)n1ccc(S(=O)(=O)n2nc(N3CCN(c4ncc(Cl)cc4F)CC34CC4)c3c(Cl)nccc32)c1 [Compound 153, 4-chloro-3-(7-(5-chloro-3-fluoropyridin-2-yl)-4,7-diazaspiro[2.5]octan-4-yl)-1-((1-(isopropylsulfonyl)-1H-pyrrol-3-yl)sulfonyl)-1H-pyrazolo[4,3-c]pyridine] | ≤ 1000 |
| CC(C)S(=O)(=O)c1ccc(S(=O)(=O)n2nc(N3CCN(S(=O)(=O)C(F)(F)F)CC34CC4)c3c(Cl)cccc32)s1 [Compound 14, 4-chloro-1-[(5-isopropylsulfonyl-2-thienyl)sulfonyl]-3-[7-(trifluoromethylsulfonyl)-4,7-diazaspiro [2.5]octan-4-yl]indazole] | ≤ 1000 |
| CC(C)S(=O)(=O)n1ccc(S(=O)(=O)n2nc(N3CCC(F)(F)CC34CC4)c3c(Cl)cc(F)cc32)c1 [Compound 191, 4-chloro-3-(7,7-difluoro-4-azaspiro [2.5]octan-4-yl)-6-fluoro-1-(1-isopropylsulfonylpyrrol-3-yl) sulfonyl-indazole] | ≤ 1000 |
| O=S(=O)(c1ccn(S(=O)(=O)C2CC2)c1)n1nc(N2CCN(c3ncc(Cl)cc3F)CC23CC3)c2c(F)ccc(F)c21 [Compound 146, 3-[7-(5-chloro-3-fluoro-2-pyridyl)-4,7-diazaspiro [2.5]octan-4-yl]-1-(1-cyclopropylsulfonylpyrrol-3-yl) sulfonyl-4,7-difluoro-indazole] | ≤ 1000 |
| CC(C)S(=O)(=O)n1ccc(S(=O)(=O)n2nc(N3CCN(c4ncc(F)cn4)C[C@@H]3C)c3c(Cl)cc(F)cc32)c1 [Compound 177, 4-chloro-6-fluoro-3-[(2S)-4-(5-fluoropyrimidin-2-yl)-2-methyl-piperazin-1-yl]-1-(1-isopropylsulfonylpyrrol-3-yl) sulfonyl-indazole] | ≤ 1000 |
| CC(F)(F)c1ccc(S(=O)(=O)n2nc(N3CCN(C4COC4)CC3C(F)(F)F)c3c(Cl)cccc32)cc1 (stereo not drawn) [Compound 120, 4-chloro-1-((4-(1,1-difluoroethyl)phenyl)sulfonyl)-3-(4-(oxetan-3-yl)-2-(trifluoromethyl)piperazin-1-yl)-1H-indazole] | ≤ 1000 |
| O=C(N1CCN(c2nn(S(=O)(=O)c3ccc(C(F)F)cc3)c3cccc(Cl)c23)C(C(F)(F)F)C1)C(F)(F)F (stereo not drawn) [Compound 76, 1-[4-[4-chloro-1-[4-(difluoromethyl)phenyl]sulfonyl-indazol-3-yl]-3-(trifluoromethyl)piperazin-1-yl]-2,2,2-trifluoro-ethanone] | ≤ 1000 |
| CC(C)S(=O)(=O)c1ccc(S(=O)(=O)n2nc(N3CCN(c4ccc(F)cn4)CC34CC4)c3c(Cl)cccc32)cc1 [Compound 23, 4-chloro-3-[7-(5-fluoro-2-pyridyl)-4,7-diazaspiro [2.5]octan-4-yl]-1-(4-isopropylsulfonylphenyl) sulfonyl-indazole] | ≤ 1000 |
| O=S(=O)(c1ccc(S(=O)(=O)n2nc(N3CCN(c4ncc(F)cn4)CC34CC4)c3c(Cl)cccc32)cc1)C(F)F [Compound 114, 4-chloro-1-[4-(difluoromethylsulfonyl)phenyl]sulfonyl-3-[7-(5-fluoropyrimidin-2-yl)-4,7-diazaspiro[2.5]octan-4-yl]indazole] | ≤ 1000 |
